The results in this text go back to US11071788B2, “Antibody drug conjugates of kinesin spindel protein (KSP) inhibitors with antiB7H3-antibodies” (BAYER PHARMA AKTIENGESELLSCHAFT, priority 2015, dated 2021).

The term IC50 denotes the concentration at which inhibition is half-maximal. A high value points to weaker potency in that assay. As usually defined, the Papp B→A is how fast a substance crosses the layer from the basolateral side.

Data set [1] addresses motor domain of the human kinesin spindle protein KSP/Eg5 (Homo sapiens (Human), UniProt P52732). As to the kind of experiment: Inhibition of the kinesin spindle protein KSP/Eg5 (ATPase, malachite green). The data set is classed as biochemical. The settings on record: 10 nM KSP motor domain, microtubuli, 500 μM ATP, 2 h RT. Here is the method: The motor domain of the human kinesin spindle protein KSP/Eg5 (tebu-bio/Cytoskeleton Inc, No. 027EG01-XL) was incubated in a concentration of 10 nM with microtubuli (bovine or porcine, tebu-bio/Cytoskeleton Inc) stabilized with 50 μg/ml taxol (Sigma No. T7191-5MG) for 5 min at RT in 15 mM PIPES, pH 6.8 (5 mM MgCl2 and 10 mM DTT, Sigma). […] Incubation was at RT for 2 h. ATPase activity was detected by detecting the inorganic phosphate formed using malachite green (Biomol). […] The positive controls used were monastrol (Sigma, M8515-1 mg) and ispinesib (AdooQ Bioscience A10486). The individual data of the dose-activity curve are eight-fold determinations. The IC50 values are means of two independent experiments.

The next data set relates to NCI-H292. Description: Cytotoxicity MTT assay, NCI-H292. Type of data set: cell-based, human. An excerpt:
(§1) Table 2 below lists the IC50 values of representative working examples from the assay described and the corresponding cytotoxicity data (MTT assay).
On the technique in general: Tetrazolium dyes change colour on reduction, which living cells bring about.

Another data set concerns KPL4. Description: Cytotoxicity MTT assay, KPL4. Type of data set: cell-based.
Excerpt: as §1

A further data set concerns Caco-2 cells. As to the kind of experiment: Cell permeability flux assay using Caco-2 cells. Type of data set: in vitro ADME. To be noted: for Papp (B-A): Caco-2, 2 hours incubation; for Efflux ratio: ratio of Papp (B-A) to Papp (A-B), Caco-2. For orientation: Caco-2 cells form a polarised layer with tight junctions and transporters.
Data set [2] can be described thus: Cell permeability flux assay using Caco-2 cells. The data set is classed as in vitro ADME. The settings on record: human; Caco-2, 2 hours incubation.
Data set [3] relates to MCF-7: human breast cancer cells, B7H3-positive. As to the kind of experiment: CTG cytotoxicity assay of anti-B7H3 ADCs, MCF-7. Type of data set: cell-based. To be noted: MCF7, 72 h incubation, growth inhibition vs day 0.
Protocol: The cells were cultivated according to the standard method using the growth media listed under C-1. […] The cells were then incubated in an incubator at 37° C., and 5% carbon dioxide. In a parallel plate, the cell vitality was determined at the start of the drug treatment (day 0) using the Cell Titer Glow (CTG) Luminescent Cell Viability Assay (Promega #G7573 and #G7571). To this end, 100 μl of the substance were added per cell batch, the plates were then covered with aluminium foil, shaken on the plate shaker at 180 rpm for 2 minutes, allowed to stand on the laboratory bench for 8 minutes and then measured using a luminometer (Victor X2, Perkin Elmer). The substrate detects the ATP content in the living cells, generating a luminescence signal of which the height is directly proportional to the vitality of the cells. […] From the measured data, the IC^50 of the growth inhibition in comparison to day 0 was calculated using the DRC (dose response curve) analysis spreadsheet with a 4-parameter fit.
Data set [4] concerns Raji: human Burkitt's lymphoma cells, B7H3-negative. Description: CTG cytotoxicity assay of anti-B7H3 ADCs, Raji. The data set is classed as cell-based. The settings on record: 72 h incubation. Here is the method: The analysis of the cytotoxic effects of the anti-B7H3 ADCs was carried out with various cell lines:
Raji: human Burkitt's lymphoma cells, DMSZ-ACC-319, standard medium: RPMI 1640; (Biochrom; # FG 1215, with stable glutamine)+10% FCS (Biochrom; # S0415), B7H3-negative.
The cells were cultivated by the standard method as stated by the American Tissue Culture Collection (ATCC) for the cell lines in question.
The cells were cultivated according to the standard method using the growth media listed under C-1. […] In a parallel plate, the cell vitality was determined at the start of the drug treatment (day 0) using the Cell Titer Glow (CTG) Luminescent Cell Viability Assay (Promega #G7573 and #G7571). To this end, 100 μl of the […] were added per cell batch, the plates were then covered with aluminium foil, shaken on the plate shaker at 180 rpm for 2 minutes, allowed to stand on the laboratory bench for 8 minutes and then measured using a luminometer (Victor X2, Perkin Elmer). The substrate detects the ATP content in the living cells, generating a luminescence signal of which the height is directly proportional to the vitality of the cells. […] From the measured data, the IC^50 of the growth inhibition in comparison to day 0 was calculated using the DRC (dose response curve) analysis spreadsheet with a 4-parameter fit. […]

Where [5] appears, read: Homo sapiens, NCI-H292, MTT assay.

Chain of motor domain of the human kinesin spindle protein KSP/Eg5 (P52732 18-359): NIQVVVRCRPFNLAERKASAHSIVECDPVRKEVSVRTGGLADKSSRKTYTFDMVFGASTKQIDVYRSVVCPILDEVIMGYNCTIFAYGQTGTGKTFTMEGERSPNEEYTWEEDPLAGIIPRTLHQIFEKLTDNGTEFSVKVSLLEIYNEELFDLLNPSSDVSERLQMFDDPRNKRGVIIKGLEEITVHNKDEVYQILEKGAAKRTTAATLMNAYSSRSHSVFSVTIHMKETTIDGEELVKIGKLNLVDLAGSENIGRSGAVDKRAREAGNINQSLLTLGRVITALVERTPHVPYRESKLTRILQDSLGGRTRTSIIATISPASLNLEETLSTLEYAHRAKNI

As for `CC(C)(C)[C@H](c1cc(-c2cc(F)ccc2F)cn1Cc1ccccc1)N(CC[C@H](N)C(=O)NCCOCCNC(=O)CC(SC[C@H](N)C(=O)O)C(=O)O)C(=O)CO` (stereo partly shown) [Example M5], the results for the half-inhibitory concentration (IC50) (in data set [1]; with NCI-H292 (MTT assay); with KPL4 (MTT assay)) were 0.457 nM, 79.4 nM and 222 nM, respectively. Moreover, the “Papp (B-A)” value with Caco-2 cells stood at 2.03 ×10⁻⁶ cm/s. Moreover, the Efflux ratio in the data set with Caco-2 cells was 26.5.

Turning to `CC(C)(C)[C@H](c1cc(-c2cc(F)ccc2F)cn1Cc1ccccc1)N(CCCN)C(=O)CSC[C@H](NC(=O)CCOCCOCCOCCOCCNC(=O)CCNC(=O)CC(SC[C@H](N)C(=O)O)C(=O)O)C(=O)O` (stereo partly shown) [Example M10], the IC50 in data set [1] was determined as 0.47 nM; in the data set with NCI-H292 (MTT assay), 303 nM; in the data set with KPL4 (MTT assay) it was 226 nM.

As to `CC(C)(C)[C@H](c1cc(-c2cc(F)ccc2F)cn1Cc1ccccc1)N(CC[C@H](N)C(=O)N[C@H](CNC(=O)CNC(=O)CC(SC[C@H](N)C(=O)O)C(=O)O)C(=O)O)C(=O)CO` (stereo partly shown) [Example M3], the IC50 in data set [1] was found to be 1.52 nM; with NCI-H292 (MTT assay) it was 32.1 nM; with KPL4 (MTT assay), 90 nM. In addition, in the data set with Caco-2 cells, the “Papp (B-A)” value came out at 0.14 ×10⁻⁶ cm/s. Further, in the data set on Caco-2 cells, the Efflux ratio stood at 1.3.

Consider `CC(C)(C)[C@H](c1cc(-c2cc(F)ccc2F)cn1Cc1ccccc1)N(CC[C@H](N)C(=O)NCCNC(=O)CNC(=O)CC(SC[C@H](N)C(=O)O)C(=O)O)C(=O)CO` (stereo partly shown) [Example M2], for which the IC50 with NCI-H292 (MTT assay) was 204 nM; with KPL4 (MTT assay), 163 nM. Also, in the data set with Caco-2 cells, the “Papp (B-A)” value turned out to be 0.48 ×10⁻⁶ cm/s.

For the molecule `CC(C)(C)[C@H](c1cc(-c2cc(F)ccc2F)cn1Cc1ccccc1)N(CCCN)C(=O)CSC[C@H](NC(=O)CCOCCOCCOCCOCCNC(=O)CNC(=O)CC(SC[C@@H](N)C(=O)O)C(=O)O)C(=O)O` (stereo partly shown) [Example M22], the values for the IC50 with NCI-H292 (MTT assay) and in the data set on KPL4 (MTT assay) were 28.9 nM and 182 nM, respectively. In addition, the “Papp (B-A)” value in the data set on Caco-2 cells was determined as 0.09 ×10⁻⁶ cm/s.

`CC(C)(C)[C@H](c1cc(-c2cc(F)ccc2F)cn1Cc1ccccc1)N(CC[C@H](N)C(=O)NCCNC(=O)CNC(=O)C[C@@H](SC[C@H](N)C(=O)O)C(=O)O)C(=O)CO` (racemic) [Example M26, 4-[(2-{[2-({(2S)-2-Amino-4-[{(1R)-1-[1-benzyl-4-(2,5-difluorophenyl)-1H-pyrrol-2-yl]-2,2-dimethylpropyl}(glycoloyl)amino]butanoyl}amino)ethyl]amino}-2-oxoethyl)amino]-2-{[(2R)-2-amino-2-carboxyethyl]sulfanyl}-4-oxobutanoic acid-trifluoroacetic acid (1:1)] gave an IC50 in the data set with NCI-H292 (setting [5]) of 63.8 nM. The same molecule registered a Papp B→A at 2 h in data set [2] of 1.3 ×10⁻⁶ cm/s.

As for `CC(C)(C)[C@H](c1cc(-c2cc(F)ccc2F)cn1Cc1ccccc1)N(CCCN)C(=O)CSC[C@H](NC(=O)CCOCCOCCOCCOCCNC(=O)CNC(=O)CC(SC[C@H](N)C(=O)O)C(=O)O)C(=O)O` (stereo partly drawn) [Example M20, (1R,4R,27R,33R)-1-Amino-32-(3-aminopropyl)-33-[1-benzyl-4-(2,5-difluorophenyl)-1H-pyrrol-2-yl]-34,34-dimethyl-6,9,25,31-tetraoxo-13,16,19,22-tetraoxa-3,29-dithia-7,10,26,32-tetraazapentatriacontane-1,4,27-tricarboxylic acid/trifluoroacetic acid (1:2)], the IC50 with NCI-H292 (setting [5]) was 149 nM; with KPL4 (KPL4, MTT assay) it was 213 nM.

For `CC(C)(C)[C@H](c1cc(-c2cc(F)ccc2F)cn1Cc1ccccc1)N(CCCN)C(=O)CO` [M09, N-(3-Aminopropyl)-N-{(1R)-1-[1-benzyl-4-(2,5-difluorophenyl)-1H-pyrrol-2-yl]-2,2-dimethylpropyl}-2-hydroxyacetamide], the IC50 in data set [3] and in data set [4] was 0.03 nM throughout.

`CC(C)(C)[C@H](c1cc(-c2cc(F)ccc2F)cn1Cc1ccccc1)N(CC[C@H](N)C(=O)NC(CCC(=O)O)C(=O)O)C(=O)CO.O=C(O)C(F)(F)F` (stereo in doubt) [Example M25, N-{(2S)-2-Amino-4-[{(1R)-1-[1-benzyl-4-(2,5-difluorophenyl)-1H-pyrrol-2-yl]-2,2-dimethylpropyl}(glycoloyl)amino]butanoyl}-L-glutamic acid-trifluoroacetic acid (1:1)]: the IC50 in the data set on NCI-H292 (setting [5]) turned out to be 500 nM; in the data set on KPL4 (KPL4, MTT assay) it was 500 nM. The molecule also showed a Papp B→A at 2 h in data set [2] of 0.81 ×10⁻⁶ cm/s.
